Data: patent US4895842A, “Phenylalanine derivative and proteinase inhibitor” (Shosuke Okamoto, priority 1985, dated 1990)
Structures can show the parent of a compound that is named as a salt.

Tests used:
[1] = biological target: T1, bovine trypsin (Bos taurus, UniProt P00760); experiment: Antitrypsin activity: inhibition of S-2238 decomposition; format: biochemical; conditions: Table 2; S-2238 substrate, pH 8.1, 37° C.; read-out: Trypsin S-2238 (I50)
T1 sequence (P00760 24-246): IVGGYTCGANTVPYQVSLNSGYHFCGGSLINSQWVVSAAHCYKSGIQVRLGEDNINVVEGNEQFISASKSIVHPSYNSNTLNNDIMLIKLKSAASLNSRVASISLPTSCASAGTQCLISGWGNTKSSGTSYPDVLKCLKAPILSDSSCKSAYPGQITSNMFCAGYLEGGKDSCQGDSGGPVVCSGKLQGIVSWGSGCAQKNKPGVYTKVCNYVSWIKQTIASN
Description: Determination of inhibition activity against S-2238 decomposition
An inhibitor sample is dissolved in a 0.05M Tris-imidazole buffer solution (pH=8.1) and 125 μl of a 1 mM S-2238 solution is added to make the total volume to 1.20 ml. The mixture is incubated at a temperature of 37° C. for 5 minutes in a constant temperature bath. To this mixture, 0.05 ml of bovine trypsin is added and the absorbance, at 405 nm, of the p-nitroaniline formed per minute is determined at a temperature of 37° C. by using the so-called initial velocity method. Thus, the concentration I50 (μmol) of the inhibitor sample, at which the absorbance is one half (i.e., 1/2) of that obtained in the absence of the inhibitor sample, is determined.

[2] = biological target: T2, human plasmin (Homo sapiens, UniProt P00747); experiment: Antiplasmin activity: inhibition of fibrin decomposition; format: biochemical
T2 sequence (P00747 581-810 limits assumed): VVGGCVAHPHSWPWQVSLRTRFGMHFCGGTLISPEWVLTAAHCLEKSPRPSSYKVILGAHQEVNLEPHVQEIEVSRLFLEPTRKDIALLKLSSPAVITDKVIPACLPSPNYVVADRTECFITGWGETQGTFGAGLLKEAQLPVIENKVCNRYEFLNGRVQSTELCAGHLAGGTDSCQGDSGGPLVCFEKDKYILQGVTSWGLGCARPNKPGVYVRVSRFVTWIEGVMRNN
T2 sequence (P00747 97-580 partner limits assumed): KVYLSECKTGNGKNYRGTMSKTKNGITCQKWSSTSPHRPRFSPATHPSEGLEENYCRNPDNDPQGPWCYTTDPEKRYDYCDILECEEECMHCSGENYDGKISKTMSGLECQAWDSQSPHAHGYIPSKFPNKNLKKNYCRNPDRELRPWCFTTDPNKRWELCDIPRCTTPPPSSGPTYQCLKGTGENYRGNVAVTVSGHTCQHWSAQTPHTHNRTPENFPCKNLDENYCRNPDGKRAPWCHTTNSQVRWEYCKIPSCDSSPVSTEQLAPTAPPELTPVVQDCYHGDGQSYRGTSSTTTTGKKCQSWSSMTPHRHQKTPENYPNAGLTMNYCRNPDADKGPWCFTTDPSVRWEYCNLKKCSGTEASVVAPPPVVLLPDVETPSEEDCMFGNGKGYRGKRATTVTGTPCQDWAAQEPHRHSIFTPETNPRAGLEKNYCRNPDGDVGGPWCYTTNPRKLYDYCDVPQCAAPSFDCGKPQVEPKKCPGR
Description: (i) Determination of inhibition activity for fibrin decomposition
An inhibitor sample is dissolved in a 0.18M borate-physiological salt buffer solution (pH=7.4) to make the total volume to 600 μl. To this buffer solution, 200 μl of a 0.2% bovine fibrinogen, 100 μl of a 0.3 casein unit/ml human plasmin solution, and 100 μl of a 50 unit/ml bovine thrombin solution, all dissolved in the above-mentioned buffer, are added at a temperature of 37° C. in a constant temperature bath. Then, the dissolution time of the fibrin mass formed above is determined.

[3] = biological target: human plasma kallikrein (Homo sapiens, UniProt P03952); experiment: Anti-plasma kallikrein activity: inhibition of S-2302 decomposition; format: biochemical; conditions: Table 2; S-2302 substrate, pH 7.8, 37° C.; read-out: Plasma Kallikrein S-2302 (I50)
Sequence of human plasma kallikrein (P03952 391-638 limits assumed): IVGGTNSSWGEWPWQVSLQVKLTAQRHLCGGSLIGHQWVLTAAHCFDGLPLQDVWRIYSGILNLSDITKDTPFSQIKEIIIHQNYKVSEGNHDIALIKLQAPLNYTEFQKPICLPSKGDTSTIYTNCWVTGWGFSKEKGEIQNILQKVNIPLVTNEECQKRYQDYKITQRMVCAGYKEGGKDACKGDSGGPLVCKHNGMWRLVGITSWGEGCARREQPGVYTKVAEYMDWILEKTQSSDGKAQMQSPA
Sequence of human plasma kallikrein (P03952 20-390 partner limits assumed): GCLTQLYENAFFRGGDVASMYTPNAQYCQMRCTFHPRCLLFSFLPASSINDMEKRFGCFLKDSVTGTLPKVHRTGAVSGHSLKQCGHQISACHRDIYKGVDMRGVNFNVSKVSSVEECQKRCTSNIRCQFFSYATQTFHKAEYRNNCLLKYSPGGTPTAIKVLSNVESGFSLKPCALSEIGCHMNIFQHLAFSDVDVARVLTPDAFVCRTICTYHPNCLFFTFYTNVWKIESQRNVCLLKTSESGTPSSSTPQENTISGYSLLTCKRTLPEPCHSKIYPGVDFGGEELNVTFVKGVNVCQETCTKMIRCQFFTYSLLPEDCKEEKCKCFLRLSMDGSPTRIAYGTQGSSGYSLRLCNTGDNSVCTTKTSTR
Description: Determination of inhibition activity for S-2302 decomposition
An inhibitor sample is dissolved in a 0.05M Tris-hydrochloric acid buffer solution (pH=7.8) to make the total volume to 400 μl. To this solution, 50 μl of a 2 mM S-2302 solution is added and the mixture is incubated at a temperature of 37° C. for 5 minutes in a constant temperature bath. Then, 50 μl of a 0.12 unit/ml human plasma kallikrein is added and the mixture is incubated at a temperature of 37° C. for 5 minutes. Thereafter, 50 μl of 50% acetic acid is added to terminate the reaction. The absorbance of the p-nitroaniline formed in the reaction mixture is measured at 405 nm. Thus, the concentration I50 (μmol) of the inhibitor sample, at which the absorbance is one half (i.e., 1/2) of that obtained in the absence of the inhibitor sample, is determined.

[4] = biological target: T2, human plasmin; experiment: biochemical
Description: An inhibitor sample is dissolved in a 0.05M Tris-hydrochloric acid buffer solution (pH=7.4) to make the total volume of 400 μl. […] Then, 50 μl of a 0.2 casein unit/ml human plasmin is added and the mixture is incubated at a temperature of 37° C. for 4 minutes. Thereafter, the reaction is stopped by adding 50 μl of 50% acetic acid.
Thus, the concentration I50 (μmol) of the inhibitor sample, at which the absorbance is one half (i.e., 1/2) of that obtained in the absence of the inhibitor, is determined.

[5] = biological target: human urokinase (Homo sapiens, UniProt P00749); experiment: biochemical; conditions: Table 2; S-2444 substrate, pH 8.8, 37° C.; read-out: Urokinase S-2444 (I50)
Description: Determination of inhibition activity for S-2444 decomposition
An inhibitor sample is dissolved in a 0.05M Tris-hydrochloric acid buffer solution (pH=8.8) to make the total volume to 400 μl. To this solution, 50 μl of a 1 mM S-2444 solution is added and the mixture is incubated at a temperature of 37° C. for 5 minutes in a constant temperature bath. Then, 50 μl of a 500 unit/ml human urokinase is added and the mixture is incubated at a temperature of 37° C. for 5 minutes. Thereafter, 50 μl of 50% acetic acid is added to terminate the reaction. The absorbance of the p-nitroaniline formed in the reaction mixture is measured at 405 nm. Thus, the concentration I50 (μmol) of the inhibitor sample, at which the absorbance is one half (i.e., 1/2) of that obtained in the absence of the inhibitor sample, is determined.

[6] = biological target: T3, bovine thrombin (Bos taurus, UniProt P00735); experiment: Antithrombin activity: inhibition of fibrin formation from fibrinogen; format: biochemical
Description: (i) Determination of inhibition activity against fibrin formation
An inhibitor sample is dissolved in a 0.18M borate-physiological salt buffer solution (pH=7.4) to make the total volume to 500 μl. To this solution, 400 μl of a 0.2% bovine fibrinogen solution and 100 μl of a 4 unit/ml bovine thrombin solution are added at a temperature of 37° C. in a constant temperature bath. Thus, a coagulation time is determined. The inhibitor concentration I50 (μmol), at which the coagulation time obtained in the absence of the inhibitor is extended twice, is determined.

[7] = biological target: T3, bovine thrombin; experiment: Antithrombin activity: inhibition of S-2238 decomposition; format: biochemical
Description: (ii) Determination of inhibition activity for S-2238 decomposition
An inhibitor sample is dissolved in a 0.05M Tris-hydrochloric acid buffer solution (pH=8.3) to make a total volume of 400 μl. To this solution, 50 μl of a 0.2 mM S-2238 solution is added and the mixture is incubated at a temperature of 37° C. for 5 minutes in a constant temperature bath. Then, 50 μl of a 0.2 unit/ml bovine thrombin solution is added thereto and the absorbance, at 405 nm, of the p-nitroaniline formed per minute is determined at a temperature of 37° C. by using the so-called initial velocity method. Thus, the concentration I50 (μmol) of the inhibitor sample at which the absorbance is one half (i.e., 1/2) of that obtained in the absence of the inhibitor sample, is determined.

[8] = Table 2, concentration at which fibrin dissolution time is extended twice, pH 7.4, 37° C., read-out: Plasmin Fibrin (I50)
[9] = Table 2, S-2238 substrate, pH 8.3, 37° C., read-out: Thrombin S-2238 (I50)

Row | Compound | IC50 [1] [nM] | IC50 [2, 8] [nM] | IC50 [3] [µM] | IC50 ([4]; read-out: Plasmin S-2251 (I50)) [µM] | IC50 [5] [µM] | IC50 [6] [µM] | IC50 [2] [nM] | IC50 [7, 9] [µM] | IC50 [4] [µM] | IC50 [7] [µM]
1 | CC1CCC(NC(=O)C(Cc2ccc(OCc3cccc(Cl)c3)cc2)NC(=O)c2ccc(CN)cc2)CC1C (stereo not drawn) [compound 103] | 1200 | 120 | 18 | 0.78 | > 100 | – | – | – | – | –
2 | CC1CCC(NC(=O)C(Cc2ccc(OCc3ccc(F)cc3)cc2)NC(=O)c2ccc(CN)cc2)CC1C (stereo not drawn) [compound 106] | 3000 | 540 | 19 | 1.4 | > 150 | > 50 | – | – | – | –
3 | CC(=O)c1ccc(NC(=O)[C@H](Cc2ccc(OC(=O)OCc3ccccc3Br)cc2)NC(=O)[C@H]2CC[C@H](CN)CC2)cc1 [compound 144] | 950 | 51 | 0.37 | 0.23 | 43 | > 50 | – | – | – | –
4 | Cc1ccc(NC(=O)[C@H](Cc2ccc(OCc3ccccc3)cc2)NC(=O)c2ccc(CN)cc2)cc1C [compound 65] | 5000 | 1000 | 22 | 2.9 | > 200 | > 50 | – | – | – | –
5 | CC(=O)c1ccc(NC(=O)[C@H](Cc2ccc(OCc3cc(Cl)ccc3Cl)cc2)NC(=O)[C@H]2CC[C@H](CN)CC2)cc1 [compound 125] | 800 | 130 | 0.38 | 0.49 | 47 | – | – | – | – | –
6 | NC[C@H]1CC[C@H](C(=O)NC(Cc2ccc([N+](=O)[O-])cc2)C(=O)Nc2ccc(C(=O)c3ccccc3)cc2)CC1 (mixture of isomers) [Compound No. 31, N-(trans-4-aminomethylcyclohexylcarbonyl)-4-nitro-D,L-phenylalanine 4-benzoylanilide hydrochloride] | – | – | 6 | – | 3.3 | > 100 | 3300 | > 100 | 14 | –
7 | COc1ccc(NC(=O)[C@H](Cc2ccc(OCc3ccccc3)cc2)NC(=O)c2ccc(CN)cc2)cn1 [compound 140] | – | 2500 | 18 | 8.8 | > 100 | > 200 | – | – | – | > 200
8 | NCc1ccc(C(=O)N[C@@H](Cc2ccc(OCc3ccccc3)cc2)C(=O)NC2CCCCC2)cc1 [Compound No. 114, N-(4-aminomethylbenzoyl)-4-benzyloxy-L-phenylalanine cyclohexylamide hydrochloride] | 9500 | 1400 | 40 | 3.2 | > 100 | – | – | – | – | –
9 | CC(=O)c1ccc(NC(=O)[C@H](Cc2ccc(OC(C)C)cc2)NC(=O)[C@H]2CC[C@H](CN)CC2)cc1 [compound 14] | – | 4400 | 2.1 | 168 | 80 | > 500 | – | > 400 | – | –
10 | NCc1ccc(C(=O)N[C@@H](Cc2ccc(OCc3ccccc3)cc2)C(=O)Nc2ccc(C(=O)O)cc2)cc1 [compound 139] | – | 190000 | > 1000 | > 1000 | > 1000 | > 1000 | – | > 1000 | – | –
11 | NCc1ccc(C(=O)NC(Cc2ccc(OCc3ccccc3)cc2)C(=O)NCc2ccc(F)cc2)cc1 (stereo not drawn) [compound 113] | 18000 | 1700 | > 25 | 8.3 | > 20 | > 50 | – | – | – | –
12 | CC(=O)c1ccc(NC(=O)[C@H](Cc2ccc(OC(=O)OCc3ccccc3Cl)cc2)NC(=O)[C@H]2CC[C@H](CN)CC2)cc1 [compound 145] | – | 75 | 0.75 | 0.56 | 31 | > 50 | – | 86 | – | –
13 | Cc1ccc(NC(=O)[C@H](Cc2ccc(OCc3ccccc3)cc2)NC(=O)c2ccc(CN)cc2)cc1 [compound 63] | 10000 | 1400 | 24 | 5.6 | > 100 | > 50 | – | – | – | –

Next, values leading:

Row | IC50 [1] [nM] | IC50 [2, 8] [nM] | IC50 [3] [µM] | IC50 ([4]; read-out: Plasmin S-2251 (I50)) [µM] | IC50 [5] [µM] | IC50 [6] [µM] | IC50 [2] [nM] | IC50 [7, 9] [µM] | IC50 [4] [µM] | IC50 [7] [µM] | Compound
14 | 840 | 91 | 0.46 | 0.58 | 70 | – | – | – | – | – | CC(=O)c1ccc(NC(=O)[C@H](Cc2ccc(OCc3ccc(Cl)c(Cl)c3)cc2)NC(=O)[C@H]2CC[C@H](CN)CC2)cc1 [compound 45]
15 | – | 280 | 1.2 | 1.3 | 19 | – | – | – | – | – | NC[C@H]1CC[C@H](C(=O)N[C@@H](Cc2ccc(OCc3ccccc3)cc2)C(=O)Nc2ccc(C(=O)c3ccccc3)cc2)CC1 [compound 19]
16 | 440 | 140 | 1.2 | 1.1 | 40 | > 20 | – | – | – | – | NC[C@H]1CC[C@H](C(=O)N[C@@H](Cc2ccc(OCc3cccc(Cl)c3)cc2)C(=O)Nc2ccc(C(=O)c3ccccc3)cc2)CC1 [compound 67]
17 | – | 280 | 0.56 | 1.5 | 23 | – | – | – | – | – | CC(=O)c1ccc(NC(=O)[C@H](Cc2ccc(OCc3ccc(Br)cc3)cc2)NC(=O)[C@H]2CC[C@H](CN)CC2)cc1 [compound 17]
18 | 840 | 390 | 0.46 | 0.9 | 25 | – | – | – | – | – | CC(=O)c1ccc(NC(=O)[C@H](Cc2ccc(OCc3ccc(Cl)cc3)cc2)NC(=O)[C@H]2CC[C@H](CN)CC2)cc1 [Compound No. 5, N-(trans-4-aminomethylcyclohexylcarbonyl)-4-(4-chlorobenzyloxy)-L-phenylalanine 4-acetylanilide]
19 | – | – | – | – | – | > 500 | – | > 400 | – | – | NC[C@H]1CC[C@H](C(=O)N[C@@H](Cc2ccc(OCc3ccccc3)cc2)C(=O)Nc2cccnc2)CC1 [Compound No. 16, N-(trans-4-aminomethylcyclohexylcarbonyl)-4-benzyloxy-L-phenylalanine 3-pyridylamide dihydrochloride]
20 | – | 290 | 0.58 | 0.64 | 45 | > 100 | – | > 100 | – | – | CC(=O)c1ccc(NC(=O)[C@H](Cc2ccc(OC(=O)OCc3ccccc3)cc2)NC(=O)[C@H]2CC[C@H](CN)CC2)cc1 [compound 146]
21 | 450 | 830 | 3.5 | 1.5 | 6.3 | > 200 | – | – | – | – | N=C(N)c1ccc(NC(=O)[C@H](Cc2ccc(OCc3ccccc3)cc2)NC(=O)[C@H]2CC[C@H](CN)CC2)cc1 [compound 126]
22 | – | 410 | 0.84 | 0.79 | 11 | – | – | – | – | – | CC(=O)c1ccc(NC(=O)[C@H](Cc2ccc(OCc3ccc(F)cc3)cc2)NC(=O)[C@H]2CC[C@H](CN)CC2)cc1 [Compound No. 12]
23 | – | 1100 | 2.1 | 6.9 | 560 | > 100 | – | > 100 | – | – | Cc1ccc(NC(=O)[C@H](Cc2ccc(OCc3ccccc3)cc2)NC(=O)[C@H]2CC[C@H](CN)CC2)cc1 [compound 26]
